Laboratory results published in ChEMBL document CHEMBL3627602, “Synthesis of a novel series of 2,3,4-trisubstituted oxazolidines designed by isosteric replacement or rigidification of the structure and cytotoxic evaluation” (Medchemcomm, 2014).
Calls of active or inactive are those of the source. The calls are words filed in the database; no cut-off is given here.

Tests used:
HL-60 [1] = test: Antiproliferative activity against human HL60 cells incubated for 48 hrs by MTT assay; type: functional, cell-based; conditions: HL-60, 48 h
Jurkat = test: Antiproliferative activity against human Jurkat cells incubated for 48 hrs by MTT assay; type: functional, cell-based
MDA-MB-231 [2] = test: Antiproliferative activity against human MDA-MB-231 cells incubated for 48 hrs by MTT assay; type: functional, cell-based; conditions: MDA-MB-231, 48 h
LNCaP [3] = test: Antiproliferative activity against human LNCAP cells incubated for 48 hrs by MTT assay; type: functional, cell-based
Vero = test: Cytotoxicity against African green monkey Vero cells incubated for 48 hrs by MTT assay; type: cell-based; conditions: Chlorocebus sabaeus
PBMC = test: Antiproliferative activity against human PBMC incubated for 48 hrs by MTT assay; type: cell-based
LNCaP [4] = test: Selectivity index, ratio of IC50 for African green monkey Vero cells to IC50 for human LNCAP cells; type: functional
LNCaP [5] = test: Selectivity index, ratio of IC50 for human PBMC to IC50 for human LNCAP cells
HL-60 [6] = test: Induction of DNA fragmentation in human HL60 cells at 50 uM after 24 hrs using propidium iodide staining by flow cytometric analysis; type: functional, cell-based
MDA-MB-231 [7] = test: Induction of DNA fragmentation in human MDA-MB-231 cells at 50 uM after 24 hrs using propidium iodide staining by flow cytometric analysis; type: functional, cell-based

| Structure (SMILES) | IC50 (HL-60 [1]) | IC50 (Jurkat) | IC50 (MDA-MB-231 [2]) | IC50 (LNCaP [3]) | IC50 (Vero) | IC50 (PBMC) | Ratio IC50 (LNCaP [4]) | Ratio IC50 (LNCaP [5]) | Activity (HL-60 [6]) | Activity (MDA-MB-231 [7]) |
| --- | --- | --- | --- | --- | --- | --- | --- | --- | --- | --- |
| CC(C)(C)OC(=O)N1[C@@H](C(=O)Nc2ccc([N+](=O)[O-])cc2)COC1(C)C | > 50 µM | > 50 µM | > 80 µM | > 80 µM |  |  |  |  |  |  |
| CC(C)(C)OC(=O)N1[C@@H](/C=C/c2ccc([N+](=O)[O-])cc2)COC1(C)C | 23 µM | 46 µM | 32 µM | 11 µM | > 100 µM | > 100 µM | >9 | >9 | Active | inactive |
| CC(C)(C)OC(=O)N1[C@@H](/C=C\c2ccc([N+](=O)[O-])cc2)COC1(C)C | 18 µM | 42 µM | 32 µM | 27 µM | > 100 µM | > 100 µM |  |  | Active | inactive |
| COC(=O)c1ccc(CC[C@H]2COC(C)(C)N2C(=O)OC(C)(C)C)cc1 | 20 µM | > 50 µM | > 80 µM | 37 µM |  |  |  |  |  |  |
| CC(C)(C)OC(=O)N1[C@@H](CSc2ccc([N+](=O)[O-])cc2)COC1(C)C | > 50 µM | > 50 µM | > 80 µM | > 80 µM |  |  |  |  |  |  |
